Source: US20060198832A1, “Peptide drugs for chronic lymphocytic leukemia (CLL) and other cancers” (priority 2004, published 2006)
Blank lines part the entries; values can stand above or below the molecule they belong to. Where a SMILES comes first, the peptide text is derived from it. Bridges are numbered along the chain shown (N, C = ends). Roman numbers before positions name the chains, in order. Where no end group is shown, it is not given here. [ ]: non-standard residue; d: D form. Ahx = NCCCCCC(=O)O

Key:
[1] = system: Bcl-2; experiment: BD Cytometric Bead Assay of Bcl-2 levels in peptide treated CLL cells; format: cell-based, human; details: TJK160 and TJK357 CLL patient cells, incubated with peptide for four hours, FIG. 5
Method: TJK160 and TJK357 CLL patient cells were treated with the modified BAD peptide SEQ ID NO: 6 or with control peptides SEQ ID NO: 29 and SEQ ID NO: 30 essentially as described above. To determine the levels of Bcl-2 in each of the peptide treated CLL samples, a BD™ Cytometric Bead Assay (BD CBA; BD Biosciences) was used to quantitatively measure active caspase-3, cleaved PARP and Bcl-2 levels in a single sample. In this assay, soluble analytes are measured using amplified fluorescence detection and flow cytometry, with each bead in a CBA providing a capture surface for a specific protein and being analogous to an individually coated well in an ELISA plate. A single bead population with a distinct fluorescence intensity is coated with a capture antibody specific for active caspase-3 protein, cleaved PARP protein or Bcl-2 protein and subsequently resolved in the FL3 channel of a BD FACSTM brand flow cytometer. The capture bead, PE-conjugated detection antibody, and cell lysate standard or test samples are incubated together to form sandwich complexes and analyzed using BD CBA Analysis Software. Cells were lysed in 1× CBA Cell Lysis Buffer supplemented with Protease Inhibitor Cocktail according to the manufacturer's protocol. Human active caspase-3, cleaved PARP and Bcl-2 lysate standards were reconstituted in deionized water at room temperature for 15 minutes. The standard was diluted by serial dilutions using assay diluent according to the manufacturer's protocol. Capture beads were vortexed before use, and 50 μl of capture beads were transferred to each assay tube. Standard dilutions and test samples were added to the appropriate sample tubes (50 μl/tube) and incubated at room temperature for one hour. […] After addition of 300 μl of Wash Buffer, samples were analyzed by the BD FACScan or BD FACSCalibur. Samples were analyzed by the use of BD CellQuest Software, and data were acquired by the use of the BD CBA Software. […]

[2] = system: 697-neo cells; experiment: cell viability assay in 697-neo cells; format: cell-based; details: low Bcl-2, FIG. 6
Method: (§1) The peptides were tested in cell viability assays essentially as described above in Examples I and II. Experiments were carried out in 697-neo and 697-Bcl-2 cells. 697 cells are from a cell line of preB leukemic cells. 697-Bcl-2 cells have been engineered to express high levels of Bcl-2. AML-349 and AML-728 are myeloblasts (verified by FACS analysis via CD34-positivity) that were isolated from respective patients with acute myelogenous leukemia (AML).

[3] = target: Bcl-2 family Bcl-2/x1 (Homo sapiens, UniProt P10415); experiment: binding of penetratin-linked peptides to Bcl-2 (method not described)
[4] = system: acute myelogenous leukemia (AML) cells; experiment: cell viability/apoptosis in patient AML cells; format: cell-based, human
Method: as §1

[5] = system: CLL cells; experiment: CLL cell viability, cell permeable peptides added directly to culture without electroporation; format: cell-based, human; details: for change in viability: TJK197 patient CLL cells, FIG. 4
Excerpt: Peripheral blood mononuclear cells (PBMC) from patients with chronic lymphocytic leukemia (CLL) were obtained from the CLL Research Consortium (CRC) tissue bank. Briefly, heparinized peripheral blood was obtained from patients diagnosed with B-CLL according to standard criteria (Chenson et al., Blood 87:4990-4997 (1996)). Lymphocytes were isolated by Ficoll density-gradient centrifugation and verified by immunofluorescence flow cytometry to be composed of greater than 95% CD5/CD19/CD23 triple positive B cells. CLL samples were incubated at 1×10^6 cells/ml in RPMI media supplemented with 10% FBS (fetal bovine serum) and 1 mM L-glutamine and antibiotics (penicillin/streptomycin) at 37° C. with 5% CO2 for 24 hours. CLL cells were electroporated with a dimethyl sulfoxide (DMSO) control or peptides essentially as described in Eksioglu-Demiralp et al., J. Immunol. Methods 275:41-56 (2003), and Schimmer et al., Cancer Res. 63:1242-1248 (2003).
For evaluation of apoptosis, at least 5×10^5 cells were recovered by centrifugation and double-stained with Annexin V-FITC, an early marker of apoptosis, and propidium iodide (PI), a nucleic acid-binding vital dye, followed by flow-cytometric analysis using the FL-1 and FL-3 channels of a Becton Dickinson flow cytometer (FACSort; San Jose, Calif.).
The wild type and modified BAD peptides fused to poly-arginine cell penetration sequences shown in Table 5 were synthesized by standard solid phase synthesis. CLL cell viability assays were performed as described above except that cell permeable peptides SEQ ID NOS: 28, 6 and 29 and the control, non-permeable peptide SEQ ID NO: 3 (see Table 5) were added directed to CLL cells in culture without electroporation.

[6] = system: chronic lymphocytic leukemia (CLL) cells; experiment: viability/apoptosis of CLL cells electroporated with peptides (Annexin V-FITC/PI flow cytometry); format: cell-based, human; details: for cell viability (Induction of Apoptosis in CLL Cells), patient sample JCB 178: CLL patient sample JCB 178; for cell viability (Induction of Apoptosis in CLL Cells), patient sample JCB 178 / cell viability (Induction of Apoptosis in CLL Cells), patient sample MA G15 / cell viability (Induction of Apoptosis in CLL Cells), patient sample TJK 328 / cell viability (Induction of Apoptosis in CLL Cells), patient sample TJK 340 #1 / cell viability (Induction of Apoptosis in CLL Cells), patient sample TJK 340 #2 / cell viability (Induction of Apoptosis in CLL Cells), patient sample TJK 375 / cell viability (Induction of Apoptosis in CLL Cells), Av.: peptide electroporated; for cell viability (Induction of Apoptosis in CLL Cells), patient sample TJK 328: CLL patient sample TJK 328; for cell viability (Induction of Apoptosis in CLL Cells), patient sample TJK 340 #1: CLL patient sample TJK 340 #1; for cell viability (Induction of Apoptosis in CLL Cells), patient sample TJK 340 #2: CLL patient sample TJK 340 #2; for cell viability (Induction of Apoptosis in CLL Cells), patient sample TJK 375: CLL patient sample TJK 375; for cell viability (Induction of Apoptosis in CLL Cells), Av.: average of the five preceding patient sample columns; for cell viability of CLL cells / cell viability in all the patient CLL samples: electroporated peptide; for cell viability of CLL cells: FIG. 2; for cell viability in all the patient CLL samples: summary of Table 4
Excerpt: Peripheral blood mononuclear cells (PBMC) from patients with chronic lymphocytic leukemia (CLL) were obtained from the CLL Research Consortium (CRC) tissue bank. Briefly, heparinized peripheral blood was obtained from patients diagnosed with B-CLL according to standard criteria (Chenson et al., Blood 87:4990-4997 (1996)). Lymphocytes were isolated by Ficoll density-gradient centrifugation and verified by immunofluorescence flow cytometry to be composed of greater than 95% CD5/CD19/CD23 triple positive B cells. […] CLL cells were electroporated with a dimethyl sulfoxide (DMSO) control or peptides essentially as described in […] et al., J. Immunol. Methods 275:41-56 (2003), and […] et al., Cancer Res. 63:1242-1248 (2003). For evaluation of apoptosis, at least 5×10^5 cells were recovered by centrifugation and double-stained with Annexin V-FITC, an early marker of apoptosis, and propidium iodide (PI), a nucleic acid-binding vital dye, followed by flow-cytometric analysis using the FL-1 and FL-3 channels of a Becton Dickinson flow cytometer (FACSort; San Jose, Calif.).

[7] = Letai et al., Cancer Cell 2:183-192 (2002); cited from earlier work
[8] = target: BCL-2 (Homo sapiens, UniProt P10415); details: Letai et al., Cancer Cell 2:183-192 (2002); cited from earlier work
[9] = target: T1, Bcl-2 (UniProt P10415 1-239, limits assumed); experiment: inferred from cell viability of 697-neo against 697-Bcl2 cells
T1 construct: also called Bcl-2 protein
T1 sequence (P10415 whole entry): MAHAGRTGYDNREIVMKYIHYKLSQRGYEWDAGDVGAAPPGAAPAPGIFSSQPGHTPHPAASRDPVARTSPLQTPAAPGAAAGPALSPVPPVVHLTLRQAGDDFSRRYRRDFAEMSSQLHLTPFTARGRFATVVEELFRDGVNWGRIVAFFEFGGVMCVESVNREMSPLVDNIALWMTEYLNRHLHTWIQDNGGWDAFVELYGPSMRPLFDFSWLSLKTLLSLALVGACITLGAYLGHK

Sequence of BCL-2 (P10415 whole entry, species assumed): as the sequence (P10415 whole entry) above
Sequence of Bcl-2 family Bcl-2/x1 (P10415 1-205): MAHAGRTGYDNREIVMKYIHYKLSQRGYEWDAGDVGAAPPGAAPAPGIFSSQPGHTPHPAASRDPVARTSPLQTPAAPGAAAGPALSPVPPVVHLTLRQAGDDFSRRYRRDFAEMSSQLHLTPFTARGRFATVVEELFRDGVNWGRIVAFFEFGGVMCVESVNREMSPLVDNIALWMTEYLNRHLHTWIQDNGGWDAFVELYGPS

Molecule: AVPIAQK-Ahx-(DArg)8 (AVPIAQK[Ahx][dR][dR][dR][dR][dR][dR][dR][dR]) [SEQ ID NO: 30, control peptide with poly(DArg)]
- intracellular levels of Bcl-2 [1]: not observed

- binding to Bcl-2 [3]: does not bind Bcl-2 family Bcl-2/x1
Molecule: acetyl-NLWAAQRYGRELRRMADEFVDAFKKC-CRQIKIWFQNRRMKWKK-amide [2336] (D-residues; cyclised or stapled) [compound 2336]
- activity in reducing cell viability [2]: significantly less active than the 2335 peptide
- induction of apoptosis / killing ([4]; AML cells of patient AML-349, FIG. 9): showed less killing
- induction of apoptosis ([4]; AML cells of patient AML-728, FIG. 8): does not

Molecule: NLWAAQRYGRELRRMSDEFVDSFKKC-Ahx*-(DArg)8 (NLWAAQRYGRELRRMSDEFVDSFKKC[Ahx][dR][dR][dR][dR][dR][dR][dR][dR]) [SEQ ID NO: 28]
- change in viability [5]: no change in viability
- effect on cell viability ([5]; patient TJK379 CLL cells, even at 50 μM): negligible effect
- cell viability of cancer cells (concluding statement) ([5]; poly-arginine fused peptide, CLL cells): dramatically reduce cell viability

Molecule: CSCC[C@H](NC(=O)[C@H](CCCNC(=N)N)NC(=O)[C@H](CCCNC(=N)N)NC(=O)[C@H](CC(C)C)NC(=O)[C@H](CCC(=O)O)NC(=O)[C@H](CCCNC(=N)N)NC(=O)CNC(=O)[C@H](Cc1ccc(O)cc1)NC(=O)[C@H](CCCNC(=N)N)NC(=O)[C@H](CCC(N)=O)NC(=O)[C@H](C)NC(=O)[C@H](C)NC(=O)[C@H](Cc1c[nH]c2ccccc12)NC(=O)[C@H](CC(C)C)NC(=O)[C@@H](N)CC(N)=O)C(=O)N[C@@H](CO)C(=O)N[C@@H](CC(=O)O)C(=O)N[C@@H](CCC(=O)O)C(=O)N[C@@H](Cc1ccccc1)C(=O)N[C@H](C(=O)N[C@@H](CC(=O)O)C(=O)N[C@@H](CO)C(=O)N[C@@H](Cc1ccccc1)C(=O)N[C@@H](CCCCN)C(=O)N[C@@H](CCCCN)C(=O)O)C(C)C [SEQ ID NO: 1]
- cell viability (Induction of Apoptosis in CLL Cells), patient sample JCB 178 [6]: 45%
- cell viability (Induction of Apoptosis in CLL Cells), patient sample MA G15 [6]: 4%
- cell viability (Induction of Apoptosis in CLL Cells), patient sample TJK 328 [6]: 42%
- cell viability (Induction of Apoptosis in CLL Cells), patient sample TJK 340 #1 [6]: 46%
- cell viability (Induction of Apoptosis in CLL Cells), patient sample TJK 340 #2 [6]: 56%
- cell viability (Induction of Apoptosis in CLL Cells), patient sample TJK 375 [6]: 47%
- cell viability (Induction of Apoptosis in CLL Cells), Av. [6]: 47%
- cell viability of CLL cells [6]: minimal or insignificant changes in viability
- cell viability in all the patient CLL samples [6]: minimally effected
- apoptotic activity [7]: does not have apoptotic activity
- Kd [8]: ~40 nM

Molecule: NLWAAQRYGREARRMAAEFVDAFKKC-Ahx-(DArg)8 (NLWAAQRYGREARRMAAEFVDAFKKC[Ahx][dR][dR][dR][dR][dR][dR][dR][dR]) [SEQ ID NO: 29, control BAD peptide with poly(DArg)]
- intracellular levels of Bcl-2 [1]: not observed
- change in viability [5]: no change in viability

Molecule: CSCC[C@H](NC(=O)[C@H](CCCNC(=N)N)NC(=O)[C@H](CCCNC(=N)N)NC(=O)[C@H](CC(C)C)NC(=O)[C@H](CCC(=O)O)NC(=O)[C@H](CCCNC(=N)N)NC(=O)CNC(=O)[C@H](Cc1ccc(O)cc1)NC(=O)[C@H](CCCNC(=N)N)NC(=O)[C@H](CCC(N)=O)NC(=O)[C@H](C)NC(=O)[C@H](C)NC(=O)[C@H](Cc1c[nH]c2ccccc12)NC(=O)[C@H](CC(C)C)NC(=O)[C@@H](N)CC(N)=O)C(=O)N[C@@H](C)C(=O)N[C@@H](CC(=O)O)C(=O)N[C@@H](CCC(=O)O)C(=O)N[C@@H](Cc1ccccc1)C(=O)N[C@H](C(=O)N[C@@H](CC(=O)O)C(=O)N[C@@H](C)C(=O)N[C@@H](Cc1ccccc1)C(=O)N[C@@H](CCCCN)C(=O)N[C@@H](CCCCN)C(=O)N[C@@H](CS)C(=O)NCCCCCC(=O)N[C@H](CCCNC(=N)N)C(=O)N[C@H](CCCNC(=N)N)C(=O)N[C@H](CCCNC(=N)N)C(=O)N[C@H](CCCNC(=N)N)C(=O)N[C@H](CCCNC(=N)N)C(=O)N[C@H](CCCNC(=N)N)C(=O)N[C@H](CCCNC(=N)N)C(=O)N[C@H](CCCNC(=N)N)C(=O)O)C(C)C [SEQ ID NO: 6] (H-NLWAAQRYGRELRRMADEFVDAFKKC[Ahx][dR][dR][dR][dR][dR][dR][dR][dR]-OH; N-terminus and C-terminus assumed)
- intracellular levels of Bcl-2 [1]: significant reduction in intracellular levels of Bcl-2
- cell viability, dose response ([5]; patient TJK379 CLL cells, FIG. 3): dose-dependent decrease in cell viability
- percentage cell viability ([5]; patient TJK379 CLL cells, as little as 15 μM peptide): dramatically reduced

Molecule: NLWAAQRYGREARRMAAEFVDAFKK [SEQ ID NO: 4]
- cell viability (Induction of Apoptosis in CLL Cells), patient sample JCB 178 [6]: 38%
- cell viability (Induction of Apoptosis in CLL Cells), patient sample MA G15 [6]: 20%
- cell viability (Induction of Apoptosis in CLL Cells), patient sample TJK 328 [6]: 26%
- cell viability (Induction of Apoptosis in CLL Cells), patient sample TJK 340 #1 [6]: 46%
- cell viability (Induction of Apoptosis in CLL Cells), patient sample TJK 340 #2 [6]: 45%
- cell viability (Induction of Apoptosis in CLL Cells), patient sample TJK 375 [6]: 48%
- cell viability (Induction of Apoptosis in CLL Cells), Av. [6]: 41%
- cell viability of CLL cells [6]: minimal or insignificant changes in viability
- cell viability in all the patient CLL samples [6]: minimally effected

B1: 2335 peptide, acetyl-NLWAAQRYGRELRRMADEFVDAFKKC-CRQIKIWFQNRRMKWKK-amide (SEQ ID NO: 31) (peptide)
peptide 1: Ac-NLWAAQRYGRELRRMADEFVDAFKKC
peptide 2: CRQIKIWFQNRRMKWKK-NH2
modifications: disulfide I:26-II:1
notes: C-C is a disulfide between two peptides, so it is written here as two chains; also called Bad S/A peptide disulfide linked to penetratin; BAD-BH3 peptide
- binding result [9]: binds
